Structures can show the parent of a compound that is named as a salt.
Tests used:
NLRP3 = NLRP3 (Homo sapiens, UniProt Q96P20); test: THP-1 cells pyroptosis assay; type: cell-based; design: Seed THP-1 cells (25,000 cells/well) containing 1.0 μg/ml LPS; host or cells: THP-1 cells, LPS-primed, nigericin-stimulated; conditions: THP-1 cells, 1.0 μg/ml LPS, compound 3 hrs, nigericin 5 μM 1 hr, resazurin readout; read-out: THP IC50
Description: NLRP and Pyroptosis It is well established that the activation of NLRP3 leads to cell pyroptosis and this feature plays an important part in the manifestation of clinical disease (Yan-gang Liu et al., Cell Death &Disease, 2017, 8(2), e2579; Alexander Wree et al., Hepatology, 2014, 59(3), 898-910; Alex Baldwin et al., Journal of Medicinal Chemistry, 2016, 59(5), 1691-171; Ema Ozaki et al., Journal of Inflammation Research, 2015, 8, 15-27; Zhen Xie & Gang Zhao, Neuroimmunology Neuroinflammation, 2014, 1(2), 60-65; Mattia Cocco et al., Journal of Medicinal Chemistry, 2014, 57(24), 10366-10382; T. Satoh et al., Cell Death &Disease, 2013, 4, e644). Therefore, it is anticipated that inhibitors of NLRP3 will block pyroptosis, as well as the release of pro-inflammatory cytokines (e.g. […]) from the cell. THP-1 Cells: Culture and Preparation THP-1 cells (ATCC #TIB-202) were grown in RPMI containing L-glutamine (Gibco #11835) supplemented with imM sodium pyruvate (Sigma #S8636) and penicillin (100 units/ml)/streptomycin (0.1 mg/ml) (Sigma #P4333) in 10% Fetal Bovine Serum (FBS) (Sigma #Fo804). The cells were routinely passaged and grown to confluency (˜10^6 cells/ml). On the day of the experiment, THP-1 cells were harvested and resuspended into RPMI medium (without FBS). The cells were then counted and viability (>90%) checked by Trypan blue (Sigma #T8154). Appropriate dilutions were made to give a concentration of 625,000 cells/ml. To this diluted cell solution was added LPS (Sigma #L4524) to give a […] Final Assay Concentration (FAC). 40 μl of the final preparation was aliquoted into each well of a 96-well plate. The plate thus prepared was used for compound screening. THP-1 Cells Pyroptosis Assay The following method step-by-step assay was followed for compound screening. • 1. Seed THP-1 cells (25,000 cells/well) containing 1.0 μg/ml LPS in 40 μl of RPMI medium (without FBS) in 96-well, black walled, clear bottom cell culture plates coated with poly-D-lysine (VWR #734-0317) • 2. Add […] compound (8 points half-log dilution, with 10 μM top dose) or vehicle (DMSO 0.1% FAC) to the appropriate wells • 3. […] Add 5 μl nigericin (Sigma #N7143) (FAC 5 μM) to all wells • 5. […] At the end of the incubation period, spin plates at 300 xg for 3 mins and remove supernatant • 7. Then add 50 μl of resazurin (Sigma #R7017) (FAC 100μ M resazurin in RPMI medium without FBS) and incubate plates for a further 1-2 hrs at 37° C. and 5% CO2 • 8. Plates were read in an Envision reader at Ex 560 nm and Em 590 nm • 9. IC50 data is fitted to a non-linear regression equation (log inhibitor vs response-variable slope 4-parameters) [table]

[1] = Pharmacokinetic parameters in male Sprague Dawley rats (intravenous and oral administration); type: in vivo; conditions: rat plasma, dose per compound (mg/kg)
Experimental: Pharmacokinetic parameters were determined in male Sprague Dawley rats (Charles River, UK, 250-350 g; or Vital River Laboratory Animal Technology Co Ltd, Beijing, China, 7-9 weeks old). Animals were individually housed during the study and maintained under a 12 h light/dark cycle. Animals had free access to food and water except that some orally dosed animals were food deprived overnight prior to the study.
For intravenous administration, compounds were formulated as a solution in water or DMSO:PBS [10:90] in 2 mL/kg dosing volume and administered via tail vein. For oral administration, compounds were formulated as a solution in water or DMSO:water [10:90] in 5 mL/kg dosing volume and administered orally.
Serial blood samples (about 120-300 μL) were taken from each animal at each of 8 time-points post dose (0.083, 0.25, 0.5, 1, 2, 4, 8 and 24 h) or at each of 12 time-points post dose (0.03, 0.1, 0.17, 0.25, 0.5, 1, 2, 4, 6, 8,12 and 24 h) or pre-dose and at each of 9 time-points post dose (0.25, 0.5, 1, 2, 4, 6, 8, 12 and 24 h). Samples were held on ice for no longer than 30 minutes before centrifugation (10,000 rpm (8,385 g) for 3 minutes; or 5,696 rpm (3,000 g) for 15 minutes) for plasma generation. Plasma was frozen on dry ice prior to bioanalysis. PK parameters were generated from LC-MS/MS data using Dotmatics or Phoenix WinNonlin 6.3 software.

NLRP3, sequence (Q96P20 whole entry): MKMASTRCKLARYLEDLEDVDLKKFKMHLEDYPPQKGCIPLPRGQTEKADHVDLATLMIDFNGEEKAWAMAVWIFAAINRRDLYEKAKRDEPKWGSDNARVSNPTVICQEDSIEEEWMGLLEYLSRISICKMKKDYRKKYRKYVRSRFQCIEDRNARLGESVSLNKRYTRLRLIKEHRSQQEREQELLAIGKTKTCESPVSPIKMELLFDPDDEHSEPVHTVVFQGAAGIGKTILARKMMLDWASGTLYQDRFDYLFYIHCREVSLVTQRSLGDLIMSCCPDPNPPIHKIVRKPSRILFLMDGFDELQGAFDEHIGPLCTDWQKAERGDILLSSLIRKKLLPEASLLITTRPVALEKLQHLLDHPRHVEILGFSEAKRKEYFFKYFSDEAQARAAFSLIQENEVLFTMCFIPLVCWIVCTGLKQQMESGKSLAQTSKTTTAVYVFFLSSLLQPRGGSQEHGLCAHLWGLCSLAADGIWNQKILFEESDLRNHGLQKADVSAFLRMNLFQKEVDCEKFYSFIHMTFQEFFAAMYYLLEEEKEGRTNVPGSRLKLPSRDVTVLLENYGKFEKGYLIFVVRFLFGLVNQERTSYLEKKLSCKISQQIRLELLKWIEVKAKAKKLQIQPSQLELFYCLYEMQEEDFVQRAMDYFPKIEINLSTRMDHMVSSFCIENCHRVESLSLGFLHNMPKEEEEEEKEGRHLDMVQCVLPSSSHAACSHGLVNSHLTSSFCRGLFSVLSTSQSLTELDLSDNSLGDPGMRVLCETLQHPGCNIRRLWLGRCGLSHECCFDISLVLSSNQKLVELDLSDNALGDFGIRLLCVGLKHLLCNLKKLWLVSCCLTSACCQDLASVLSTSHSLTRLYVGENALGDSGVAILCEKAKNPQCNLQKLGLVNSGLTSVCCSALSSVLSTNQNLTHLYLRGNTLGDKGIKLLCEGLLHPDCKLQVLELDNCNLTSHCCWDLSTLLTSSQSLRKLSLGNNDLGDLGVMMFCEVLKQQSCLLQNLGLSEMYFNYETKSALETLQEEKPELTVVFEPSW

SMILES	IC50 (NLRP3)	AUC ([1]; intravenous administration)	Cl ([1]; intravenous administration)	T1/2 ([1]; intravenous administration)	Vdss ([1]; intravenous administration)	other results
CC(c1cc(S(=O)(=O)NC(=O)Nc2c3c(cc4c2CCC4)CCC3)nn1C)N1CCC1 (single isomer, unassigned) [Example 46, 5-(1-(Azetidin-1-yl)ethyl)-N-((1,2,3,5,6,7-hexahydro-s-indacen-4-yl)carbamoyl)-1-methyl-1H-pyrazole-3-sulfonamide, sodium salt]	< 160 nM					
CC(c1cc(S(=O)(=O)NC(=O)Nc2c3c(cc4c2CCC4)CCC3)nn1C)N1CCC1 (single isomer, unassigned) [Example 47, 5-(1-(Azetidin-1-yl)ethyl)-N-((1,2,3,5,6,7-hexahydro-s-indacen-4-yl)carbamoyl)-1-methyl-1H-pyrazole-3-sulfonamide, sodium salt]	< 160 nM					
CC(c1cc(S(=O)(=O)NC(=O)Nc2c3c(cc4c2CCC4)CCC3)nn1C)N(C)C (single isomer, unassigned; enantiomer 2) [Example 90, 5-(1-(Dimethylamino)ethyl)-N-((1,2,3,5,6,7-hexahydro-s-indacen-4-yl)carbamoyl)-1-methyl-1H-pyrazole-3-sulfonamide, Enantiomer 2]						CL/F ([1]; male, Sprague Dawley, oral administration): 6 mL/min/kg; Tmax ([1]; male, Sprague Dawley, oral administration, read-out: Tmax): 0.5 h; AUC ([1]; oral administration): 11115.9 ng·h/mL; Cmax ([1]; oral administration): 5665.0 ng/mL; T1/2 ([1]; oral administration): 1.1 h
CC(=O)N1CC(n2ccc(S(=O)(=O)NC(=O)Nc3c4c(cc5c3CCC5)CCC4)n2)C1 [Example 4, 1-(1-Acetylazetidin-3-yl)-N-((1,2,3,5,6,7-hexahydro-s-indacen-4-yl)carbamoyl)-1H-pyrazole-3-sulfonamide]	< 2560 nM					
CN1CCn2nc(S(=O)(=O)NC(=O)Nc3c4c(cc5c3CCC5)CCC4)cc2C1=O [Example 5, N-((1,2,3,5,6,7-Hexahydro-s-indacen-4-yl)carbamoyl)-5-methyl-4-oxo-4,5,6,7-tetrahydropyrazolo[1,5-a]pyrazine-2-sulfonamide, sodium salt]	< 10000 nM					
CC(C)c1cc(F)cc(C(C)C)c1NC(=O)NS(=O)(=O)c1ccn(CCN(C)C)n1 [Example 16, 1-(2-(Dimethylamino)ethyl)-N-((4-fluoro-2,6-diisopropyl-phenyl)carbamoyl)-1H-pyrazole-3-sulfonamide]	< 10000 nM					
CCn1nc(S(=O)(=O)NC(=O)Nc2c(-c3ccnc(OC)c3)ccc3c2CCC3)cc1CN(C)C [Example 37, 5-((Dimethylamino)methyl)-1-ethyl-N-((5-(2-methoxypyridin-4-yl)-2,3-dihydro-1H-inden-4-yl)carbamoyl)-1H-pyrazole-3-sulfonamide]		2710.4 ng·h/mL	10.5 mL/min/kg	3.8 h	1.23 L/kg	
Cc1cc(-c2cc(F)cc(C(C)C)c2NC(=O)NS(=O)(=O)c2cc(CN(C)C)n(C)n2)n(C)n1 [Example 60, N-((2-(1,3-Dimethyl-1H-pyrazol-5-yl)-4-fluoro-6-isopropylphenyl)carbamoyl)-5-((dimethylamino)methyl)-1-methyl-1H-pyrazole-3-sulfonamide]		259.1 ng·h/mL	65.6 mL/min/kg	0.5 h	0.98 L/kg	
CC(C)c1cc(F)cc(-c2cccnc2)c1NC(=O)NS(=O)(=O)c1cc(CN(C)C)n(C)n1 [Example 61, 5-((Dimethylamino)methyl)-N-((4-fluoro-2-isopropyl-6-(pyridin-3-yl)phenyl)carbamoyl)-1-methyl-1H-pyrazole-3-sulfonamide]		259.0 ng·h/mL	64.9 mL/min/kg	0.5 h	0.75 L/kg	
CC(C)c1cc(F)cc(-c2cccc(C#N)c2)c1NC(=O)NS(=O)(=O)c1cc(CN(C)C)n(C)n1 [Example 66, N-((3′-Cyano-5-fluoro-3-isopropyl-[1,1′-biphenyl]-2-yl)carbamoyl)-5-((dimethylamino)methyl)-1-methyl-1H-pyrazole-3-sulfonamide]		375.4 ng·h/mL	51.5 mL/min/kg	1.2 h	1.14 L/kg	
COc1cc(-c2cc(F)cc(C(C)C)c2NC(=O)NS(=O)(=O)c2cc(CN(C)C)n(C(C)C)n2)ccn1 [Example 67, 5-((Dimethylamino)methyl)-N-((4-fluoro-2-isopropyl-6-(2-methoxypyridin-4-yl)phenyl)carbamoyl)-1-isopropyl-1H-pyrazole-3-sulfonamide]		247.8 ng·h/mL	67.2 mL/min/kg	0.3 h	1.32 L/kg	
COc1cc(-c2cc(F)cc(C(C)C)c2NC(=O)NS(=O)(=O)c2cc(CN(C)C)n(C)n2)ccn1 [Example 68, 5-((Dimethylamino)methyl)-N-((4-fluoro-2-isopropyl-6-(2-methoxypyridin-4-yl)phenyl)carbamoyl)-1-methyl-1H-pyrazole-3-sulfonamide]		356.0 ng·h/mL	47.6 mL/min/kg	0.5 h	0.8 L/kg	
CC(C)c1cc(F)cc(C2CCOCC2)c1NC(=O)NS(=O)(=O)c1cc(C(=O)N(C)C)n(C)n1 [Example 133, 3-(N-((4-Fluoro-2-isopropyl-6-(tetrahydro-2H-pyran-4-yl)phenyl)carbamoyl)sulfamoyl)-N,N,1-trimethyl-1H-pyrazole-5-carboxamide, sodium salt]		182.5 ng·h/mL	91.3 mL/min/kg	2.3 h	2.72 L/kg	
CC(C)c1cc(F)cc(-c2cnn(C)c2)c1NC(=O)NS(=O)(=O)c1cc(C(=O)N(C)C)n(C)n1 [Example 135, 3-(N-((4-Fluoro-2-isopropyl-6-(1-methyl-1H-pyrazol-4-yl)phenyl)carbamoyl)sulfamoyl)-N,N,1-trimethyl-1H-pyrazole-5-carboxamide, sodium salt]		661.2 ng·h/mL	25.2 mL/min/kg	12.1 h	3.03 L/kg	
CC(C)c1cc(F)cc(-c2cccnc2)c1NC(=O)NS(=O)(=O)c1cc(C(=O)N(C)C)n(C)n1 [Example 141, 3-(N-((4-Fluoro-2-isopropyl-6-(pyridin-3-yl)phenyl)carbamoyl)sulfamoyl)-N,N,1-trimethyl-1H-pyrazole-5-carboxamide, sodium salt]		274.4 ng·h/mL	60.7 mL/min/kg	6.3 h	3.95 L/kg	
CC(C)c1cc(Cl)cc(C(C)C)c1NC(=O)NS(=O)(=O)c1cc(C(=O)N(C)C)n(C)n1 [Example 168, 3-(N-((4-Chloro-2,6-diisopropylphenyl)carbamoyl)sulfamoyl)-N,N,1-trimethyl-1H-pyrazole-5-carboxamide]		353.3 ng·h/mL	160.9 mL/min/kg	1.3 h	10.55 L/kg	
